{"source": "patent US20210352863A1", "about": "“METHOD FOR CONTROLLING WEED BEETS AND OTHER WEEDS” (KWS SAAT SE & Co. KGaA, priority 2018, published 2021)", "key": {"[1]": {"tested_on": "sugar beet elite line T807 (mutagenized, M2 plants)", "assay": "glyphosate treatment of surviving M2 plants of mutagenized sugar beet (screening and selection for resistance)", "assay_type": "in vivo, Beta vulgaris (sugar beet)", "settings": "600 g/ha glyphosate acid equivalent", "description": "6 kg seeds of sugar beet elite line T807 (3BT1760, M0 population) were mutagenized with 0.5% EMS and 0.3% and 0.5%, respectively ENU, and subsequently drilled for steck production. Stecks were replanted for seed production occupying an area of 5.8 ha. M1 population sizes were 75,000 seed producing plants for EMS and 19,000 plants for ENU mutagenized seeds. The following M2 seed amounts (values given for purified seed) has been obtained: 240 kg for 0.5% EMS (idents A and B), 548 kg for 0.3% ENU (idents C and D), and 256 kg 0.5% ENU (idents E and F).\n176 kg of idents A and B and 75 kg of idents C, D, E and F were sown on an approximately 15 ha spanning field site. Approximately 1 month after sowing, the entire field was sprayed with 0.88 I/ha ROUNDUP® MAX (680 g/kg glyphosate acid equivalent). Approximately 6 weeks later, plants surviving the glyphosate treatment were collected in the field, transplanted to pots and further cultivated in the greenhouses. Surviving plants were treated with 600 g/ha glyphosate acid equivalent about 2 months later.\nIn order to identify the causative mutation behind the observed herbicide resistance sequencing analyses have been performed. Inter alia, the exon 2 of the epsp synthase gene in sugar beet was PCR amplified (primers BvEPSPS_Ex_2_for, 5′-[…]-3′ (SEQ ID NO: 13), and BvEPSPS_Ex_2_rev, 5′-[…]-3′ (SEQ ID NO: 14)) and Sanger sequenced (primers BvEPSPS_Ex2_Seqf, 5′-[…]-3′ (SEQ ID NO: 15), and BvEPSPS_Ex2_Seqr, 5′-[…]-3′ (SEQ ID NO: 16)) in all 172 surviving plants. The sugar beet plant with identifier 6MS1008-109 carried a C to T mutation that causes the P179S amino acid change in BvEPSPS. This artificial SNP has been independently confirmed by KASP marker assay using an in silico developed KASP-marker s1txepss02 (SEQ ID NOs: 17-19): […]"}, "[2]": {"settings": "acid form, at 25° C.; cited from earlier work"}}}
{"smiles": "O=C(O)CNCP(=O)(O)O", "note": "[glyphosate, N-phosphonomethylglycine]", "values": [{"measurement": "resistance conferred by heterozygous P179S mutation in BvEPSPS", "setting": "[1]; approx. 50% of standard field treatment level, strong indication from screening and selection", "result": "complete resistance"}, {"measurement": "plants that survived the treatment", "setting": "[1]; potted greenhouse plants that had survived the field spray with ROUNDUP MAX", "result": 172, "unit": "plants"}, {"measurement": "herbicide damage on surviving plants", "setting": "[1]; the 172 surviving plants in the greenhouse", "result": "without any signs of herbicide damage"}, {"measurement": "solubility in water", "setting": "[2]", "result": 1.16, "unit": "% by weight"}]}
